{
  "source": "patent US20120046321A1",
  "about": "“METHODS OF TREATING ATRIAL FIBRILLATION WITH P38 INHIBITOR COMPOUNDS” (INTERMUNE, INC., priority 2005, published 2012)",
  "key": {"[1]": {"system": "TGF-β1", "details": "cited from earlier work"}, "[2]": {"system": "tissue inhibitor of metalloproteinase (TIMP)-4", "assay": "Western blot of atrial tissue", "format": "in vivo, canine", "details": "3 groups"}, "[3]": {"system": "canines with ventricular tachypacing (VTP)-induced congestive heart failure (CHF)", "assay": "Open-chest electrophysiology and epicardial mapping (ERP, CV, conduction heterogeneity)", "format": "in vivo, canine", "text": "Briefly, 15 adult mongrel canines (weight 20 to 32 kgs) were divided into 3 groups (n=5 in each group) as follows: Group 1: Normal; Group 2: CHF canines not treated with PFD (or CHF); and Group 3: CHF canines treated with PFD (or CHF+PFD). […] The CHF and CHF+PFD canines underwent placement of a permanent single-chamber pacemaker with the pacing lead positioned in the right ventricular apex followed by radiofrequency catheter ablation of the AV junction to create complete heart block. Canines in the CHF and CHF+PFD groups underwent 3 weeks of VTP at a rate of 220 bpm. Oral PFD (800 mg three times a day) (InterMune, Brisbane, Calif.) was started 2 days prior to the initiation of VTP and was given for the full duration of the pacing period. During the follow-up EP study, each animal was anesthetized with isoflurane and mechanically ventilated. The pacemaker rate was set at 80 bpm at twice diastolic threshold for the entire EP study. The chest was opened with a midline sternotomy. A pericardial cradle was created, and 4 custom-made, epicardial, high-density plaques (left atrial free wall (LAFW); left atrial Bachmann's bundle (LABB); right atrial free wall (RAFW); right atrial Bachmann's bundle (RABB)) were placed over the atria (512 electrodes with an inter-electrode distance of 2.5 mm), similar to the setup described in Verheule S, et al., Circulation 107:2615-22 (2003) and Sih H J, et al. J Am Coll Cardiol. 36:924-31 (2000). Unipolar electrode signals were acquired (sampling rate 2 kHz) and stored with the UnEmap mapping system (University of Auckland, New Zealand). Electrode pairs on the epicardial plaque were used for bipolar stimulation at twice diastolic threshold. Effective refractory periods (ERPs) were measured at 12 atrial sites (6 in LA, 6 in RA) using the single extrastimulus protocol (S1S2) at an 8-beat drive train basic cycle lengths (BCLs) of 200, 300, and 400 ms. During stimulation of the contralateral Bachmann's bundle, conduction velocity (CV) was calculated between pairs of plaque electrodes perpendicular to the activation wavefront with a custom-written software. Verheule S, et al., Am J Physiol Heart Circ Physiol. 2004; 287:H634-44; and Bayly P V, et al., IEEE Trans Biomed Eng. 1998; 45:563-71. Used as a marker of conduction heterogeneity (Verheule S, et al., Am J Physiol Heart Circ Physiol. 2004; 287:H634-44; Bayly P V, et al., IEEE Trans Biomed Eng. 1998; 45:563-71; and Ausma J, et al., Circulation. 1997; 96:3157-63), the phase difference (ms/mm) was defined as the average difference in activation time between a plaque electrode from all of its neighboring electrodes normalized by the inter-electrode distance. Frequency histograms were constructed for the phase differences within an atrial region. The histograms were summarized as the median phase (P50), and the 5th and 95th percentile phase, or P5 and P95 of the distribution, respectively. Two measures were derived to quantify conduction heterogeneity: 1) absolute conduction heterogeneity, defined as P95-P5 (P95-5), and 2) conduction heterogeneity index, defined as the absolute conduction heterogeneity normalized by the median phase, or P95-5/P50."}},
  "note": "“Also recorded” adds a separate entry of the source. Where two headings read alike, the source gives them in different places.",
  "data": [
    {"smiles": "Cc1ccc(=O)n(-c2ccccc2)c1", "note": "[PFD, 5-methyl-1-phenyl-2-(1H)-pyridone]", "values": [
      {"measurement": "Expression of TGF-β1", "setting": "[1]; animal models of lung fibrosis (Iyer et al.)", "value": "significantly reduce"},
      {"measurement": "Expression of TGF-β1", "setting": "[1]; hepatic fibrosis (Garcia et al.)", "value": "significantly reduce"},
      {"measurement": "Expression of TGF-β1", "setting": "[1]; renal tubulointerstitial fibrosis (Shihab et al.)", "value": "significantly reduce"},
      {"measurement": "Expression of TIMP-4", "setting": "[2]", "value": "unchanged; also recorded: not markedly changed"},
      {"measurement": "LA CVs compared with the untreated group", "setting": "[3]; 3 pacing BCLs", "value": "non-statistically significant increase"},
      {"measurement": "LA ERPs", "setting": "[3]; BCLs 200, 300, 400 ms, p=NS vs untreated, p<0.03 vs Normal", "value": "further lengthening"},
      {"measurement": "Conduction heterogeneity index (P95-5/P50) in the LA", "setting": "[3]; all BCLs, p<0.02 at 300 and 400 ms", "value": "reduction"},
      {"measurement": "Absolute conduction heterogeneity (P95-5) in the LA", "setting": "[3]; all BCLs, p<0.04 at 400 ms", "value": "reduction"},
      {"measurement": "Absolute conduction heterogeneity (P95-5) in the RA", "setting": "[3]; p<0.003 at 400 ms", "value": "decrease"},
      {"measurement": "Conduction heterogeneity index (P95-5/P50) in the RA", "setting": "[3]; p<0.003 at 400 ms", "value": "decrease"},
      {"measurement": "Local conduction heterogeneity in isochronal activation maps", "setting": "[3]; pacing CL 300 ms, 4 atrial plaques", "value": "less"}
    ]}
  ]
}
